Results reported in ChEMBL document CHEMBL1201862, “PubChem BioAssay data set” (2004).
Calls of active or inactive are those of the source.

Tests used:
[1] = inhibitors of Vif binding to APOBEC3G peptide, primary screen, biochemical, TR-FRET, GST-Vif 1-94, biotin-A3G peptide, dose response retest (AID 1117319); type: functional;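 also: TR-FRET signal of purified GST-Vif binding a biotinylated A3G peptide; inhibitors lower the FRET signal by blocking Vif and A3G binding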
[2] = target: Induced myeloid leukemia cell differentiation protein Mcl-1 (Homo sapiens, UniProt Q07820); type: functional
[3] = target: Eukaryotic translation initiation factor 4E (Mus musculus, UniProt P63073); assay: eIF4E–eIF4G protein interaction inhibitors, dose response, biochemical, TR-FRET (AID 855); type: functional;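 also: potency for disrupting eIF4E binding to eIF4GI seen as loss of FRET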
[4] = target: T1, Carboxy-terminal domain RNA polymerase II polypeptide A small phosphatase 1 (Homo sapiens, UniProt Q9GZU7); assay: inhibitors of CTDSP1, concentration-response testing, biochemical assay, absorbance-based, actives from ultra-high-throughput screening (AID 540297); type: functional
T1 sequence (Q9GZU7 whole entry): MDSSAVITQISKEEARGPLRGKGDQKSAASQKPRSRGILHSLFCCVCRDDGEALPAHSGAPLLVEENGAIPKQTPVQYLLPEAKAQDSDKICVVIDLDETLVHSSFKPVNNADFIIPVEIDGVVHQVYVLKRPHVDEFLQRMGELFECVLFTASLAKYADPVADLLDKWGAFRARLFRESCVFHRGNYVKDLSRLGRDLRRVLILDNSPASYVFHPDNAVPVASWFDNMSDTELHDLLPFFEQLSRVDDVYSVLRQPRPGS

Caspase-6 = target: T2, Caspase-6 (Homo sapiens, UniProt P55212); assay: human caspase-6 inhibitors, dose response, biochemical, VEID-R110 fluorescence, cherry-pick (AID 720632)
T2 sequence (P55212 whole entry): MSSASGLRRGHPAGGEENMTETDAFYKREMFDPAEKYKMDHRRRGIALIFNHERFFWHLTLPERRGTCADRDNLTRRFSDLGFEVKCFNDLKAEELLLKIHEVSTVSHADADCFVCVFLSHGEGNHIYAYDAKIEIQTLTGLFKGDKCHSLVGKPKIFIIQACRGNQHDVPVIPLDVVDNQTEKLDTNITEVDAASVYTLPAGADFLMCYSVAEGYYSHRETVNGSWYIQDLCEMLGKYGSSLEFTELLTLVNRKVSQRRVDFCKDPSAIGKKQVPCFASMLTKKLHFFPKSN

[5] = target: Peroxisome proliferator-activated receptor gamma/Nuclear receptor coactivator 1 (Homo sapiens, UniProt P37231); assay: (§1) TR-FRET dose response biochemical High Throughput Screening assay for agonists of the steroid receptor coactivator 1 (SRC-1) recruitment by the peroxisome proliferator-activated receptor gamma (PPAR gamma): non-selective agonists. [Related pubchem assays (depositor defined):AID1300, AID1808, AID504735, AID631]; type: protein assay
[6] = target: Peroxisome proliferator-activated receptor gamma/Nuclear receptor coactivator 3 (Homo sapiens, UniProt P37231); assay: as §1, with “3 (SRC-3)” for “1 (SRC-1)”, “assays: 1301 (Confirmation screen.), 1048 (Primary screen.)]” for “assays (depositor defined):AID1300, AID1808, AID504735, AID631]”; type: functional
[7] = target: Peroxisome proliferator-activated receptor gamma/Nuclear receptor coactivator 2 (Homo sapiens, UniProt P37231); assay: TR-FRET dose response biochemical High Throughput Screening assay for agonists of the steroid receptor coactivator 2 (SRC-2) recruitment by the peroxisome proliferator-activated receptor gamma (PPAR gamma): non-selective agonists. [Related pubchem assays: 1297, 1032 ]; type: functional
Protein skinhead-1 = target: T3, Protein skinhead-1 (Caenorhabditis elegans, UniProt P34707); type: functional
T3 sequence (P34707 whole entry): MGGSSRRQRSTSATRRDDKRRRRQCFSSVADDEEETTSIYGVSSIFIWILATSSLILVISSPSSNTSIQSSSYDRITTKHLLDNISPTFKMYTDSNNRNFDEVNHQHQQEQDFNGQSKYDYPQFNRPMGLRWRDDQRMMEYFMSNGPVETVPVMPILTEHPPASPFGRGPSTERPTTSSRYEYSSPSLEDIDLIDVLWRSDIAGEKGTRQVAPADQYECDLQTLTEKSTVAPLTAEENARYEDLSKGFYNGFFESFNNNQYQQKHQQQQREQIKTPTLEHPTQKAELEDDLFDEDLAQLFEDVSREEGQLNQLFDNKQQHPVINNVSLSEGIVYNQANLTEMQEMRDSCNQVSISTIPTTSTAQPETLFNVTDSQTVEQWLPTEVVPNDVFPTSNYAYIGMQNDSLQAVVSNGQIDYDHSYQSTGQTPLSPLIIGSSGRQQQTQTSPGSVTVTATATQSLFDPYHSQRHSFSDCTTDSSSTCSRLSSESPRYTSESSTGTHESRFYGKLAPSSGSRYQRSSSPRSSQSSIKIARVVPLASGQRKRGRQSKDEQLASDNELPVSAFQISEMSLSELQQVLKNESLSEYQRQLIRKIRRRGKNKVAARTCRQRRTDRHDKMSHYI

Major prion protein = Major prion protein (Homo sapiens, UniProt P04156); type: functional, cell-based
[8] = target: T4, 1-phosphatidylinositol 4,5-bisphosphate phosphodiesterase gamma-1 (Homo sapiens, UniProt P19174); assay: Counterscreen for inhibitors of phospholipase C isozymes (PLC-B3): Fluorescence-based biochemical high throughput dose response assay to identify inhibitors of phospholipase C isozymes (PLC-gamma1).
T4 sequence (P19174 whole entry): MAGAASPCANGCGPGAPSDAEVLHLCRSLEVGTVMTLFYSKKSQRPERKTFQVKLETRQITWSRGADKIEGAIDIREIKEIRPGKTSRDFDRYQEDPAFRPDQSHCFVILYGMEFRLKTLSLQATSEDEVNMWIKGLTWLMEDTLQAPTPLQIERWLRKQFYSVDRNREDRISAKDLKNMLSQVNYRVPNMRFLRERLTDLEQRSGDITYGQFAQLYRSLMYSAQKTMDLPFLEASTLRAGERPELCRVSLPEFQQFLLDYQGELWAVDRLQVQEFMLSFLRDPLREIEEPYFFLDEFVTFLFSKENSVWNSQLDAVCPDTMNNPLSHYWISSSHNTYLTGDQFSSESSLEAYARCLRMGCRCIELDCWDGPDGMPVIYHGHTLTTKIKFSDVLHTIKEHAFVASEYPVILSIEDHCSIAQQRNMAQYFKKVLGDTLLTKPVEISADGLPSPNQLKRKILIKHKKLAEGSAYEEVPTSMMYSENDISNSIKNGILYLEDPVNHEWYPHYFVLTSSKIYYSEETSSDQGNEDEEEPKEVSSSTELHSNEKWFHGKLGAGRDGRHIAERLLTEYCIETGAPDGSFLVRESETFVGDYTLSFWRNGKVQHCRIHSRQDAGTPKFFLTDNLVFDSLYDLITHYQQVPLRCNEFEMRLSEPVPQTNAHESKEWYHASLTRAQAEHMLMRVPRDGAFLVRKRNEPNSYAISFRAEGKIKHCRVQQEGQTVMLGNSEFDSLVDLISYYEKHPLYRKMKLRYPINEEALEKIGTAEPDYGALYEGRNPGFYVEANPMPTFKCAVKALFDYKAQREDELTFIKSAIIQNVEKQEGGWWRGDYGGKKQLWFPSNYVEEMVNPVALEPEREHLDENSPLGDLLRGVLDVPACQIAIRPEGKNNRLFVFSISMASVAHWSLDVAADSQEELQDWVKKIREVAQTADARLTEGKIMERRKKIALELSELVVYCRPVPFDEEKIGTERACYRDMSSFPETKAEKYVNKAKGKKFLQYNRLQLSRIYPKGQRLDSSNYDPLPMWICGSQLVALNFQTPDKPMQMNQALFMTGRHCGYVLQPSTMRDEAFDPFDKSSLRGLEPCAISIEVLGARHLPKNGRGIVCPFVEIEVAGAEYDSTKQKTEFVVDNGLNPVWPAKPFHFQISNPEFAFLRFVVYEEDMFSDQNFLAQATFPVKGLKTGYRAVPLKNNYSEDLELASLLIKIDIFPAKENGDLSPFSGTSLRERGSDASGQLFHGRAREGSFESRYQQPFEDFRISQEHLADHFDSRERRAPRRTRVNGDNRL

[9] = target: T5, 1-phosphatidylinositol 4,5-bisphosphate phosphodiesterase beta-3 (Homo sapiens, UniProt Q01970); assay: Fluorescence-based biochemical high throughput dose response assay to identify inhibitors of phospholipase C isozymes (PLC-B3).
T5 sequence (Q01970 whole entry): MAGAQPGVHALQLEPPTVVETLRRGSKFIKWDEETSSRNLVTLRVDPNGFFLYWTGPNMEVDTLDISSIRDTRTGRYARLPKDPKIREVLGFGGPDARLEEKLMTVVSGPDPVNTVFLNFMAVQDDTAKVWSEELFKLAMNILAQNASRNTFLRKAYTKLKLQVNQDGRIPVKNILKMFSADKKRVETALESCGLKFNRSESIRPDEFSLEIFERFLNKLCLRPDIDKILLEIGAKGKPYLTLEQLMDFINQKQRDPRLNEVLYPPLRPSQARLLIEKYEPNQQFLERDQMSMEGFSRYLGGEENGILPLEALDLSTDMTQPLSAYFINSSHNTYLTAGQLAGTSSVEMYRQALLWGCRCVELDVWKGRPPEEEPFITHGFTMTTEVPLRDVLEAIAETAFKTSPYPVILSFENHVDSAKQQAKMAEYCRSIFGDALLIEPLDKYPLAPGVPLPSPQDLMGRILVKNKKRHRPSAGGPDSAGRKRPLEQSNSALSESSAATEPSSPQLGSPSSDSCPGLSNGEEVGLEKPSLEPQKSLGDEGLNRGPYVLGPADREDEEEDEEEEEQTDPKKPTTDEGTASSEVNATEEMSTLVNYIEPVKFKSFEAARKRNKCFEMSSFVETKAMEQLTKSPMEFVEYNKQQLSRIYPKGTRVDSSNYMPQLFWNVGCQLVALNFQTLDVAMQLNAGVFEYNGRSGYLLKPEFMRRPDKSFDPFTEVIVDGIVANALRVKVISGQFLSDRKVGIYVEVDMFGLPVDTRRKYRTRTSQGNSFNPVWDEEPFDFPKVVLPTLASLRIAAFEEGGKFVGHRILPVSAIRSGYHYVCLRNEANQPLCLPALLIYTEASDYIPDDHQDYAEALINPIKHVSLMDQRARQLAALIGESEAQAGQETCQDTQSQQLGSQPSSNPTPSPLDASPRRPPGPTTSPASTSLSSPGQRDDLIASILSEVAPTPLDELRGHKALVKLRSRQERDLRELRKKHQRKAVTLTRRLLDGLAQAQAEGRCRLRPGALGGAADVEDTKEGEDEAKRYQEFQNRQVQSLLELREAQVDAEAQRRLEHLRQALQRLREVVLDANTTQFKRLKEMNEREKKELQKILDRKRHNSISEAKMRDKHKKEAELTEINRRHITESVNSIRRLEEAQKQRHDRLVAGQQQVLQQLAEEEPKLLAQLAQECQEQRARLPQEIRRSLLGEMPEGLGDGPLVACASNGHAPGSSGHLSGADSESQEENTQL

[10] = target: DNA dC->dU-editing enzyme APOBEC-3A (Homo sapiens, UniProt P31941); assay: Dose Response confirmation of small molecule APOBEC3A DNA Deaminase Inhibitors via a fluorescence-based single-stranded DNA deaminase assay. [Related pubchem assays (depositor defined):AID493011, AID493024]; type: functional
[11] = target: DNA dC->dU-editing enzyme APOBEC-3G (Homo sapiens, UniProt Q9HC16); type: functional;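 also: Dose-response counterscreen measuring inhibition of APOBEC3G DNA deaminase activity, run while confirming APOBEC3A inhibitors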
[12] = system: Streptococcus sp. 'group A'; assay: growth inhibition of control SK(-) GAS strain, dose response, counter-screen for streptokinase expression inhibitor project, luminescence, kanamycin, BacTiterGlo, confirmation (AID 1900); type: functional, organism-based
Streptokinase A = target: T6, Streptokinase A (Streptococcus pyogenes serotype M1, UniProt P10520); assay: S. pyogenes streptokinase expression inhibitors, potency, dose response, plasminogen activation absorbance, OD405 (AID 1914); type: functional, Streptococcus pyogenes M1 GAS;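 also: secreted streptokinase activity via plasminogen activation per viability signal from cell pellet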
T6 sequence (P10520 whole entry): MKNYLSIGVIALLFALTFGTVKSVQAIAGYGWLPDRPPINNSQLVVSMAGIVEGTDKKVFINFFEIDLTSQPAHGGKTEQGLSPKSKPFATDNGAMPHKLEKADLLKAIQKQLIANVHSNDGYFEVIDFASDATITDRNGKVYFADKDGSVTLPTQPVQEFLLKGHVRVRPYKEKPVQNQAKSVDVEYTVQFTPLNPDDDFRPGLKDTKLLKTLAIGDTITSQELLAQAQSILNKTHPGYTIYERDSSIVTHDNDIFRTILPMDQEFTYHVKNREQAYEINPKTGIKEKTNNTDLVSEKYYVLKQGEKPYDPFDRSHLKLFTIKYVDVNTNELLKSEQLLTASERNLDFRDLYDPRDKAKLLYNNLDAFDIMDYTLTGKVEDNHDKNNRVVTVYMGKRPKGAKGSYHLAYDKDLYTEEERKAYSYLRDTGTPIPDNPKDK

Streptococcus = assay: Group A Streptococcus viability loss, dose response, counter-screen for streptokinase expression inhibitor project, luminescence, BacTiterGlo (AID 1915); type: functional, organism-based;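 also: potency for reduction of bacterial viability or growth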

DNA dC->dU-editing enzyme APOBEC-3G, sequence (Q9HC16 whole entry): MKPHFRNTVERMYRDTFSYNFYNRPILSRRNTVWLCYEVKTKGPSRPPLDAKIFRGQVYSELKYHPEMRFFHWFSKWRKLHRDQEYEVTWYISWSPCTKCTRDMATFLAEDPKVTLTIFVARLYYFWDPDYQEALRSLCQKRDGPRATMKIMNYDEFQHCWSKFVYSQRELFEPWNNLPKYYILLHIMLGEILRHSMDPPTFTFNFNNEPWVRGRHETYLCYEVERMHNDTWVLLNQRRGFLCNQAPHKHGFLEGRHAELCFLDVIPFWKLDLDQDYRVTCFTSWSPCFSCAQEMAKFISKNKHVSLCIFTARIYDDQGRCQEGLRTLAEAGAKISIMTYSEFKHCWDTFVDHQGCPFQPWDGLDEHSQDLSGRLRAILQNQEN
Eukaryotic translation initiation factor 4E, sequence (P63073 whole entry, the tested form may be a part): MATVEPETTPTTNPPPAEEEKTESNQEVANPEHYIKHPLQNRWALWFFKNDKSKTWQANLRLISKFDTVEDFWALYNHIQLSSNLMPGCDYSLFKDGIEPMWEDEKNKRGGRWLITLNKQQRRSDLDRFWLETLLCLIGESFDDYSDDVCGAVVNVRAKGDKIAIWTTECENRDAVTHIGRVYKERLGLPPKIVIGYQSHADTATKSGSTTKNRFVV
Peroxisome proliferator-activated receptor gamma/Nuclear receptor coactivator 3, sequence (P37231 whole entry): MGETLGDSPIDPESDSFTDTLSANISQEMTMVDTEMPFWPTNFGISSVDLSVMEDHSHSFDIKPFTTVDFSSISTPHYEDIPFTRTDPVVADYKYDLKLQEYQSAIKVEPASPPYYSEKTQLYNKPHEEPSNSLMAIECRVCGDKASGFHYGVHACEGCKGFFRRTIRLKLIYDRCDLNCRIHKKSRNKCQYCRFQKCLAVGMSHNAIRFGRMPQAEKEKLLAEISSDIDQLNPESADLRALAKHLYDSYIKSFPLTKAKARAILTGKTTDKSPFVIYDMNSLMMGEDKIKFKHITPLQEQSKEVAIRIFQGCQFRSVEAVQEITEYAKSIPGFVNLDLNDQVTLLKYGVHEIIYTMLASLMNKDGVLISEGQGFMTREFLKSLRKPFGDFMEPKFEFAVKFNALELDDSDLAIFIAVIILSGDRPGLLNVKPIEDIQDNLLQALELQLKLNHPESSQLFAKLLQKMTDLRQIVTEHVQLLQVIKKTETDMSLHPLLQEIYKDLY
Peroxisome proliferator-activated receptor gamma/Nuclear receptor coactivator 3, sequence (Q9Y6Q9 whole entry, further chain): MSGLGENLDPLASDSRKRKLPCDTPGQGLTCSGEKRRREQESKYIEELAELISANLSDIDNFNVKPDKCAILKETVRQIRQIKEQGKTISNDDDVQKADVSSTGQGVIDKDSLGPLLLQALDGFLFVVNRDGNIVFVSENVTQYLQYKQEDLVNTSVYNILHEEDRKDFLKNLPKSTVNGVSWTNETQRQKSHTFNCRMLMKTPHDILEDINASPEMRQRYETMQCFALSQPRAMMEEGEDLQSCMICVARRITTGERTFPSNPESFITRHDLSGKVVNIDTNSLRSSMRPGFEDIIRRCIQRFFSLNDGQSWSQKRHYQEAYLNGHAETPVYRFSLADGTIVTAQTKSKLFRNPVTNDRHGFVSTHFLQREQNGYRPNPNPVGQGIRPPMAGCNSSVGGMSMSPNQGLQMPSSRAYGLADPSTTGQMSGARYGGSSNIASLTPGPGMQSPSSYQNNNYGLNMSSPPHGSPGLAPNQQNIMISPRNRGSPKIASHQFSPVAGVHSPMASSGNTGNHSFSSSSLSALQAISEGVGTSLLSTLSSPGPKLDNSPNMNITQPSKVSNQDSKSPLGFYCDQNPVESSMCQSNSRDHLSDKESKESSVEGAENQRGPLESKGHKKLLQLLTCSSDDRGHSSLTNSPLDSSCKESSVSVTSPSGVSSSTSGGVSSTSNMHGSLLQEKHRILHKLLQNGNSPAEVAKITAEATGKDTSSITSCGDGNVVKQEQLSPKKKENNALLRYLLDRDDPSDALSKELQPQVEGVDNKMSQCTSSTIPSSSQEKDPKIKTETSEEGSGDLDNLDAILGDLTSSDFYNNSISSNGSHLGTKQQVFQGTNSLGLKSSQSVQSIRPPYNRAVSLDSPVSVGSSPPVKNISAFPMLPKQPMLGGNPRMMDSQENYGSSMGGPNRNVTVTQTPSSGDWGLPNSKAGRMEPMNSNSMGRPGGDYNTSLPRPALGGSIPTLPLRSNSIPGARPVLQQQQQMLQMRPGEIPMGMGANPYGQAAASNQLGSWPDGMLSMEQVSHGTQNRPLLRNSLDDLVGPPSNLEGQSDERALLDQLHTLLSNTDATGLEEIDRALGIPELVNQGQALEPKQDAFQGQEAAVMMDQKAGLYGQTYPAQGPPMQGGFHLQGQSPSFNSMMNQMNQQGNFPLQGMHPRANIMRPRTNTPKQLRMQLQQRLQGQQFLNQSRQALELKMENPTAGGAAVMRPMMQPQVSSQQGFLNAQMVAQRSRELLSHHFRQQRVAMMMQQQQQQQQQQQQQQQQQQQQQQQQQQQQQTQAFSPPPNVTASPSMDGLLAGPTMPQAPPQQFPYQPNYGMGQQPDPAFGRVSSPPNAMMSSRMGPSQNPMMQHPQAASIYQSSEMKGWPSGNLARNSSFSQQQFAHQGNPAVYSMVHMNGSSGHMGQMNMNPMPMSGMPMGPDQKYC
Peroxisome proliferator-activated receptor gamma/Nuclear receptor coactivator 2, sequence (P37231 whole entry): as the sequence (P37231 whole entry) above
Peroxisome proliferator-activated receptor gamma/Nuclear receptor coactivator 2, sequence (Q15596 whole entry, further chain): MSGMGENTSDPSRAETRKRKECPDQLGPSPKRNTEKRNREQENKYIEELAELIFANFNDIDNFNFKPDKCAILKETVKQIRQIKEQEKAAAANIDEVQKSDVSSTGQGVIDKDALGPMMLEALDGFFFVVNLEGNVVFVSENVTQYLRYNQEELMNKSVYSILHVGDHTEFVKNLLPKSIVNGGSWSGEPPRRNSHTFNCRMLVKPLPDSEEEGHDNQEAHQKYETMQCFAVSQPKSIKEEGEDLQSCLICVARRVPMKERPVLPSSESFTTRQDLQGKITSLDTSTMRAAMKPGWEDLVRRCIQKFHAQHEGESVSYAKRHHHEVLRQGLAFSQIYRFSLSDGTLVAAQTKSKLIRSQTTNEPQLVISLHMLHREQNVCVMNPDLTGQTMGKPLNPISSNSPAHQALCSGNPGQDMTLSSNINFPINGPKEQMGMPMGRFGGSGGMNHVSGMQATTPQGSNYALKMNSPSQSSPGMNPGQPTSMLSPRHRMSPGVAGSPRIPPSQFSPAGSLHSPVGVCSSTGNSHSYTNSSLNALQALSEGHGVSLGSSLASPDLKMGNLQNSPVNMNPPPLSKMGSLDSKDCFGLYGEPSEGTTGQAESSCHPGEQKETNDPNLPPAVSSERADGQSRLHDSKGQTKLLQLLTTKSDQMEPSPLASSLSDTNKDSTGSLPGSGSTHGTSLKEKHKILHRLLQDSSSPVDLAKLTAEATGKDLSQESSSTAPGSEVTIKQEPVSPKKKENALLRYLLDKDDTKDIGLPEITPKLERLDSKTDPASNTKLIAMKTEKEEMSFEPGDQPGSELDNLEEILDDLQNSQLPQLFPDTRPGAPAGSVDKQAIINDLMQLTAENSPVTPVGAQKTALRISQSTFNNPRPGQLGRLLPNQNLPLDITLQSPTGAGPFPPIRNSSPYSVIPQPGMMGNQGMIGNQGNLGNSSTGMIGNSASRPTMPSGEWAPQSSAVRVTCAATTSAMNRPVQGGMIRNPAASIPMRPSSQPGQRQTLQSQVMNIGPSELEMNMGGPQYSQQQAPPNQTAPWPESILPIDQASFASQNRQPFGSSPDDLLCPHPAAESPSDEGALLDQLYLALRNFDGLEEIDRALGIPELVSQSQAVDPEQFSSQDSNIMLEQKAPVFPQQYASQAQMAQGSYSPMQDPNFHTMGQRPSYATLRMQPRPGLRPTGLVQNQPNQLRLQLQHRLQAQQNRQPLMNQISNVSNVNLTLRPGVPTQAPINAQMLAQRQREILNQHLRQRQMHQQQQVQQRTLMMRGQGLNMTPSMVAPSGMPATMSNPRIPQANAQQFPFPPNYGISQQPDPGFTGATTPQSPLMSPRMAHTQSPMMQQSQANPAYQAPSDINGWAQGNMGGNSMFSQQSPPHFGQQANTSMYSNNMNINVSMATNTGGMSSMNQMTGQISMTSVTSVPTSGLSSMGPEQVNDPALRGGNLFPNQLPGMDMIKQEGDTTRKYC
Induced myeloid leukemia cell differentiation protein Mcl-1, sequence (Q07820 whole entry): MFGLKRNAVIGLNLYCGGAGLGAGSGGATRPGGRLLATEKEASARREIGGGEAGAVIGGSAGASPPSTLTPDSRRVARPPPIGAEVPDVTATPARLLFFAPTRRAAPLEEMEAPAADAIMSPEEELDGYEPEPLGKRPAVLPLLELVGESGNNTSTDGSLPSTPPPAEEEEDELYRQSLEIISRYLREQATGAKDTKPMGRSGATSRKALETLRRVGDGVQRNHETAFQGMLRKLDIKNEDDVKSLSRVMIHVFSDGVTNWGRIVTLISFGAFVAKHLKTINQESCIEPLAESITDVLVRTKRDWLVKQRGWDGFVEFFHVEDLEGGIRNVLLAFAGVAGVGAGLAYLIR
DNA dC->dU-editing enzyme APOBEC-3A, sequence (P31941 whole entry): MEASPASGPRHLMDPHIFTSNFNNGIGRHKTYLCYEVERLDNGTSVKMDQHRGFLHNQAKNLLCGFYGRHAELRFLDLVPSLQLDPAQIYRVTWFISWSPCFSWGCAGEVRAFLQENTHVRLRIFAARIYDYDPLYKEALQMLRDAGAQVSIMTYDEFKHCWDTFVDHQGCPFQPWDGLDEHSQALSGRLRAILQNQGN

In the case of `CCOC(=O)C1CCN(S(=O)(=O)c2cccc(-c3cn4cccc(C)c4n3)c2)CC1`, the IC50 [1] is reported as > 100 µM (active).
For `O=C(CSc1ccsc1[N+](=O)[O-])Nc1cc(F)ccc1F`, the IC50 [2] was 6.52 µM (not active), the IC50 [3] was 28.4 µM (active) and the IC50 [4] was 2.76 µM (active). For the same molecule, the AC50 (Caspase-6) was 5.74 µM (active).
In the case of `Cc1cc2cc(CNC(=O)c3ccc(S(=O)(=O)N4CCCC4)cc3)ccc2n1C`, the EC50 [5] is reported as 3.68 µM (active), the EC50 [6] is reported as 8.02 µM (active) and the EC50 [7] is reported as 3.91 µM (active). For the same molecule, the IC50 (Protein skinhead-1) was > 100 µM (inactive), the IC50 (Major prion protein) was 21.5 µM (inactive) and the IC50 (cells) was > 138 µM (inactive).
In the case of `CC(=O)c1ccc(Nc2nc(=O)c3cccnc3s2)cc1`, the IC50 [1] is reported as > 100 µM (active).
With `COc1ccccc1N1CCN(C(=O)c2cc(-c3cccs3)on2)CC1` the IC50 [1] was > 100 µM (active).
In the case of `CCOc1cccc(C(=O)Nc2ccc(NC(=O)c3ccccc3)c(C)c2)c1`, the IC50 [8] is reported as > 122 µM (inactive) and the IC50 [9] is reported as > 122 µM (inactive).
For `CC1(CC(=O)N/N=C/c2cc([N+](=O)[O-])c(O)cc2O)OCCO1`, the IC50 [10] was 19.3 µM (active), the IC50 [11] was 41 µM (active) and the IC50 [4] was 4.41 µM (active). For the same molecule, the AC50 (Caspase-6) was 23.7 µM (active), the IC50 [8] was > 122 µM (inactive) and the IC50 [9] was > 122 µM (inactive).
With `O=C(CC1S/C(=N\c2ccccc2)N(CCc2c[nH]c3ccccc23)C1=O)Nc1ccccc1F` (stereo unspecified) the EC50 [12] was 13.2 µM (active), the EC50 (Streptokinase A) was 14 µM (inconclusive) and the EC50 (Streptococcus) was 43.5 µM (active). The IC50 [8] was > 122 µM (inactive) and the IC50 [9] was > 122 µM (inactive).
